The values that follow come from patent US20100216779A1 (GLAXOSMITHKLINE LLC, priority 2007, published 2010).

The IC50 is the concentration that inhibits the measured activity by half.

Common to all, as to assay type: cell-based
For one experiment, the system named is COLO205 (colon). Kind of experiment: Inhibition of cell proliferation, CellTiter-Glo, COLO205. The following applies: Homo sapiens, COLO 205, 72 h. Put shortly: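 Exponentially growing COLO205 cells in medium with 10% FBS were plated below 2000 cells/well at 37 °C, 5% CO2. Untreated wells served as controls.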
For orientation: Cellular ATP, detected with luciferase, serves as a proxy for viable cell number.

Experiment [1] relates to NCI-H929 (multiple myeloma). The experiment is described as follows: Inhibition of cell proliferation, CellTiter-Glo, NCI-H929. The following applies: Homo sapiens, 72 h. In short, it runs like this: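 Cells were grown in medium with 10% FBS at 37° C, 5% CO2. Cell number was read as CellTiter-Glo luminescence (cellular ATP), with untreated wells as control.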
Experiment [2] concerns the target T1, human IGF-1R (NIH-3T3 cells over expressing human IGF-1R) (Homo sapiens, UniProt P08069).
T1 construct: expressed in transfected cells; host or cells: NIH-3T3 (mouse fibroblasts)
Kind of experiment: IGF-1R cellular autophosphorylation (DELFIA). The following applies: IGF-1 stimulated. In short, it runs like this: (§1)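 Receptor-overexpressing NIH-3T3, 10% FBS, 37 °C; cpd 30 uM–1.5 nM × 2 h; stim IGF-1 30 ng/mL (IGF-1R) or insulin 3 ug/mL (IR), 15 min; lysate DELFIA, Eu anti-pTyr; % of stimulated signal.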

In experiment [3] the target is T2, IR (NIH-3T3 cells over expressing human IGF-1R or IR) (Homo sapiens, UniProt P06213).
T2 construct: expressed in transfected cells; host or cells: NIH-3T3 (mouse fibroblasts)
The experiment is described as follows: IR cellular autophosphorylation (DELFIA). As to conditions: NIH-3T3 cells over expressing IR, insulin stimulated. In short, it runs like this: as §1

T1 sequence (P08069 31-1367): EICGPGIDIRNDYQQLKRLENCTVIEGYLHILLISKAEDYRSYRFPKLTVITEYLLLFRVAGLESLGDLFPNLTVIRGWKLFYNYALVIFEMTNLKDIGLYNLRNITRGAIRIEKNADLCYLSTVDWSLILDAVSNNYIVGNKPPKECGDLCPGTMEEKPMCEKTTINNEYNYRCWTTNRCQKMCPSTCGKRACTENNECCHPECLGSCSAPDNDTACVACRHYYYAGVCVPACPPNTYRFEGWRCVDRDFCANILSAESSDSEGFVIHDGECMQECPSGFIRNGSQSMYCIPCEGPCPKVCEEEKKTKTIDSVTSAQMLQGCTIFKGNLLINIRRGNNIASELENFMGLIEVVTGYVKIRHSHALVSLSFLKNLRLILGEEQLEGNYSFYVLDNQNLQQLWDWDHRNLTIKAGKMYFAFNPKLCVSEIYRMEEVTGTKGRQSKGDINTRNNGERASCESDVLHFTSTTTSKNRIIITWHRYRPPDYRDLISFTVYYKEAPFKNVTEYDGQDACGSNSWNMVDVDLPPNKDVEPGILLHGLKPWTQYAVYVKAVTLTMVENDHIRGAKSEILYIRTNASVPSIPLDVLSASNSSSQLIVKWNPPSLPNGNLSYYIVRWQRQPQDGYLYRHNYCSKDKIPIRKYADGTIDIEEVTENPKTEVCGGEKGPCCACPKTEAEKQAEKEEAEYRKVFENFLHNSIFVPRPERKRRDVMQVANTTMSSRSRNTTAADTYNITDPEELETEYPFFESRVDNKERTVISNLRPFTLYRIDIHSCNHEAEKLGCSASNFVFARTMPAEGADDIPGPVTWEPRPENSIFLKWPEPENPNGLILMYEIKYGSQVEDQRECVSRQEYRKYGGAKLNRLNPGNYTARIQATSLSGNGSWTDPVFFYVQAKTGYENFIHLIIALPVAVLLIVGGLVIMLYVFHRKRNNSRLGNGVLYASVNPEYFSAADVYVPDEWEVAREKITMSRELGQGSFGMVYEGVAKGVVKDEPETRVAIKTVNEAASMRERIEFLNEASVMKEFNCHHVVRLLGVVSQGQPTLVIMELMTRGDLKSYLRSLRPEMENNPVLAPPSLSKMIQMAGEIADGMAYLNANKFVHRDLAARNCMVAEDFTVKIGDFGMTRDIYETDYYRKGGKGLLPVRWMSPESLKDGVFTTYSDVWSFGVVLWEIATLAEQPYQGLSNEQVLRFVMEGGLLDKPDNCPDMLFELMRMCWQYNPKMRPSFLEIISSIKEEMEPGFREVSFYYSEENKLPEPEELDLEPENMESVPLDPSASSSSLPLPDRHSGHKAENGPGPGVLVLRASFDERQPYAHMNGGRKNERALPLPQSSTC
T2 sequence (P06213 28-1382): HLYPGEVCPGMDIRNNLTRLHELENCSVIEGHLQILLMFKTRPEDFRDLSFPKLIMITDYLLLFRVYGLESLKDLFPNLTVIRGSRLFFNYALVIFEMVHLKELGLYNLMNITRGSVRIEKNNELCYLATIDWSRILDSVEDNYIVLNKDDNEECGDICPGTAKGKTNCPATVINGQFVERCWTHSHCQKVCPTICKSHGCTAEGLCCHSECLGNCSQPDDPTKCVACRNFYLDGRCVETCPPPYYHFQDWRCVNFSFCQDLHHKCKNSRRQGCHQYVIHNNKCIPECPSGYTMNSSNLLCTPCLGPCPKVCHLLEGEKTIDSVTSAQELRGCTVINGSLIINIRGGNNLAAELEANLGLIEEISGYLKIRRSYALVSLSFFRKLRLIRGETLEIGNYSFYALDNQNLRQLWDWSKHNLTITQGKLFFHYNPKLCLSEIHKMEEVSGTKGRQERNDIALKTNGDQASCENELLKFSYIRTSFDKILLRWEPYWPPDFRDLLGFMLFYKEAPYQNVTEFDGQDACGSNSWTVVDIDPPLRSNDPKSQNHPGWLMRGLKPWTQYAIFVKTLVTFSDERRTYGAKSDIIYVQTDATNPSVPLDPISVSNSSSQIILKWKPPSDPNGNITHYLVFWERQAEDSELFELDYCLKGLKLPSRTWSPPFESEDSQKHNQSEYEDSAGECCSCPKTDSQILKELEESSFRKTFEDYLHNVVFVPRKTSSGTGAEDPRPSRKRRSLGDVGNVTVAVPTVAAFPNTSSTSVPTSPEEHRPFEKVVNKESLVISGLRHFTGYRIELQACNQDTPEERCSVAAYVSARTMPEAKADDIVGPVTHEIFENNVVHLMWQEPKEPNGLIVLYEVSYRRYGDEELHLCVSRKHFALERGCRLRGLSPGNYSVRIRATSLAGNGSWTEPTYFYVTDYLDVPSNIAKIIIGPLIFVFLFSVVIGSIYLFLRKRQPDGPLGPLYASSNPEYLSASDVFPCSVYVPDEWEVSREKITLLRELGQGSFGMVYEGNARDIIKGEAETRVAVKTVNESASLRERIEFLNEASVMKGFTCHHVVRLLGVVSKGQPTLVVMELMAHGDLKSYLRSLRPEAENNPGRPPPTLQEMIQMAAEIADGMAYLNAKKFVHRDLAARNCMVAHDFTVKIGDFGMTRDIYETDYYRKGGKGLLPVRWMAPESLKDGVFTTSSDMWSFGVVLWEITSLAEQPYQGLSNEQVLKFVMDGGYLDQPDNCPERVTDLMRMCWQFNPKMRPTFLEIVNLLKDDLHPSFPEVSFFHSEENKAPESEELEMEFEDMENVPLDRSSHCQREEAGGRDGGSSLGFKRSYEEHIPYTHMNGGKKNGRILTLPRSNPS

Take `COc1cc(N2CCC(N3CCCCC3)CC2)ccc1Nc1nccc(-c2c(-c3cccc(C(=O)Nc4c(F)cccc4F)c3)nc3ccccn23)n1` [Example 22, 3-[3-(2-{[4-(1,4′-bipiperidin-1′-yl)-2-(methyloxy)phenyl]amino}-4-pyrimidinyl)imidazo[1,2-a]pyridin-2-yl]-N-(2,6-difluorophenyl)benzamide]: the IC50 was 0.25 to 1 µM with COLO205 (colon), less than 0.25 µM in experiment [1], less than 0.1 µM in experiment [2] and less than 0.1 µM in experiment [3].

On to `COc1cc(N2CCC(N3CCN(CCF)CC3)CC2)ccc1Nc1nccc(-c2c(-c3cccc(C(=O)Nc4c(F)cccc4F)c3)nc3ccccn23)n1` [Example 57, N-(2,6-difluorophenyl)-3-[3-(2-{[4-{4-[4-(2-fluoroethyl)-1-piperazinyl]-1-piperidinyl}-2-(methyloxy)phenyl]amino}-4-pyrimidinyl)imidazo[1,2-a]pyridin-2-yl]benzamide], for which the IC50 in the experiment with COLO205 (colon) was 0.25 to 1 µM; in experiment [1], less than 0.25 µM; in experiment [2] it was less than 0.1 µM; in experiment [3], less than 0.1 µM.
